In the assay the target is human GPR40 receptor (Homo sapiens, UniProt O14842). Kind of assay: IP1 accumulation measurements using the IPOne assay system. The assay is classed as cell-based. The conditions noted are these: 1321N1 cells stably expressing human GPR40; stimulation 1 h at 37° C. As to the method: IP1 accumulation measurements using the IPOne assay system—1321N1 cells stably expressing human GPR40 receptor (Euroscreen, Belgium) are seeded 24 h before the assay in white 384-well plates in culture medium containing 10% FCS, 1% Na-Pyruvate and 400 μg/mL G418. IP1 is assayed according to the manufacturer's description (Cisbio Bioassays, France). In brief, the assay is started by substitution of the culture medium by stimulation buffer (Hepes 10 mM, CaCl2 1 mM, MgCl2 0.5 mM, KCl 4.2 mM, NaCl 146 mM, glucose 5.5 mM and LiCl 50 mM, pH 7.4). Cells are stimulated for 1 h at 37° C., 5% CO2 by addition of the compounds that are diluted in stimulation buffer containing LiCl. Assays are stopped by adding HTRF-conjugates (IP1-d2 and Anti-IP1 cryptate Tb) and lysis buffer, provided by the manufacturer. After an incubation time of 1 h at room temperature plates are measured using an EnVision™, Perkin Elmer. The obtained fluorescence ratios at 665/615 […] are then used to calculate the pEC50 values using Assay Explorer 3.3 Software (Accelrys, Inc.) by interpolation using an IP1 reference curve and subsequent sigmoidal curve fitting allowing for a variable hill slope.
Chain of human GPR40 receptor (O14842 whole entry): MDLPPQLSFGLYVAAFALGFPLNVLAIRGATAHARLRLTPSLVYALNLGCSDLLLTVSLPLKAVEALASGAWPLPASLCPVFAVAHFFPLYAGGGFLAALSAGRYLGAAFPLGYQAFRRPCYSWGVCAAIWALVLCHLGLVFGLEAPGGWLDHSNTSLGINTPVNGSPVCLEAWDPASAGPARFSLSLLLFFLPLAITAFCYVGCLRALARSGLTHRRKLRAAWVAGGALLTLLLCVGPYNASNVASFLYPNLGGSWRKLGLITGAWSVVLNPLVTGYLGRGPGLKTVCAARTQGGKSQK
By EC50 is commonly meant the concentration needed to bring the measured effect to its halfway point. `Cc1nc2cc(Oc3ccc(F)c4c3CC[C@H]4Oc3ccc4c(c3)OC[C@H]4CC(=O)O)ccc2o1` [Example 55, {(S)-6-[(R)-7-Fluoro-4-(2-methyl-benzoxazol-5-yloxy)-indan-1-yloxy]-2,3-dihydro-benzofuran-3-yl}-acetic acid] showed an EC50 of 6 nM.
Take `COc1ccc(Oc2ccc(F)c3c2CC[C@H]3Oc2ccc3c(c2)OC[C@H]3CC(=O)O)c(F)c1` [Example 56, {(S)-6-[(R)-4-(2-Fluoro-4-methoxy-phenoxy)-7-fluoro-indan-1-yloxy]-2,3-dihydro-benzofuran-3-yl}-acetic acid]: the response was half-maximal at 6 nM (EC50).
Compound `COc1c(F)cc(Oc2ccc(F)c3c2CC[C@H]3Oc2ccc3c(c2)OC[C@H]3CC(=O)O)cc1F` [Example 57, {(S)-6-[(R)-4-(3,5-Difluoro-4-methoxy-phenoxy)-7-fluoro-indan-1-yloxy]-2,3-dihydro-benzofuran-3-yl}-acetic acid] had an EC50 of 7 nM.
In the case of `Cc1nc2ccc(Oc3ccc(F)c4c3CC[C@H]4Oc3ccc4c(c3)OC[C@H]4CC(=O)O)cc2o1` [Example 58, {(S)-6-[(R)-7-Fluoro-4-(2-methyl-benzoxazol-6-yloxy)-indan-1-yloxy]-2,3-dihydro-benzofuran-3-yl}-acetic acid] it was 3 nM; in that of `Cc1nc2ccc(Oc3ccc(F)c4c3CC[C@H]4Oc3ccc4c(c3)OC[C@H]4CC(=O)O)cc2s1` [Example 59, {(S)-6-[(R)-7-Fluoro-4-(2-methyl-benzothiazol-6-yloxy)-indan-1-yloxy]-2,3-dihydro-benzofuran-3-yl}-acetic acid], 5 nM.
Compound `Cc1noc2ccc(Oc3ccc(F)c4c3CC[C@H]4Oc3ccc4c(c3)OC[C@H]4CC(=O)O)cc12` [Example 60, {(S)-6-[(R)-7-Fluoro-4-(3-methyl-benzo[d]isoxazol-5-yloxy)-indan-1-yloxy]-2,3-dihydro-benzofuran-3-yl}-acetic acid] displayed an EC50 of 3 nM.
The compound `Cc1noc2cc(Oc3ccc(F)c4c3CC[C@H]4Oc3ccc4c(c3)OC[C@H]4CC(=O)O)ccc12` [Example 61, {(S)-6-[(R)-7-Fluoro-4-(3-methyl-benzo[d]isoxazol-6-yloxy)-indan-1-yloxy]-2,3-dihydro-benzofuran-3-yl}-acetic acid] came in with an EC50 of 3 nM. That is a single-digit nanomolar value.

The values above are taken from patent US8815864B2, “Indanyloxydihydrobenzofuranylacetic acids” (Boehringer Ingelheim International GmbH, priority 2012, dated 2014).
